Measurements reported in patent US20220226343A1, “3-AMINO-4-[4-[4 (DIMETHYLCARBAMOYL) PHENYL]-1,4-DIAZEPAN-1-YL]THIENO[2,3-B]PYRIDINE-2-CARBOXAMIDE FOR USE IN CANCER THERAPY AND FORMULATIONS COMPRISING THE SAME” (University of South Carolina, priority 2019, published 2022).
Converted amounts (≈) assume the structure as drawn. Where two headings read alike, the source gives them in different places.

What was measured:
MDA-MB-468 xenografts = experiment: MDA-MB-468 TNBC xenografts in NSG female mice; conditions: 250 ppm medicated diet plus 5 then 8 mg/kg daily gavage, 66 days
MYC-CAP-CR cells = experiment: Long-term clonogenic assay, MYC-CaP-CR; assay type: cell-based, murine; conditions: 1 μM Senexin B, 1 μM 15u, 5 μM enzalutamide
Excerpt: MYC-CaP-CR cells (Ellis L. et al., 2012. Prostate 72(6):587-591) were selected for castration resistance from genetically engineered MYC-CaP cells that express MYC from an AR-responsive promoter (Watson P A, et al., 2005. Cancer Res 65(24):11565-11571). Castration resistance in these cells is associated with the overexpression of full-length AR rather than an AR variant, such as AR-V7 in 22rv1 (Olson B M, et al., 2017. Cancer immunology research 5(12):1074-1085).

[1] = Oral PK by formulation, male CD-1 mice 30 mg/kg; assay type: in vivo, mouse; conditions: for Elimination rate k: male CD-1
[2] = Maximum solubility of 15u in individual excipients; assay type: physicochemical; set-up: key to XRPD Pattern (API = A): API = A
Description: The binary mixtures were incubated on a shaker with temperature control either at 25° C. or 40° C. for at least 48 hours. The mixtures were filtered with 0.45 μm filters to separate the solid and liquid portions. PLC was performed on the on the liquid portion to determine the maximum solubility. XRPD was performed on the collected solid to check polymorph change.

[3] = test system: luciferase-expressing MV4-11 cells; experiment: MV4-11 leukemia in female NSG mice (BLI); assay type: in vivo, mouse; conditions: for inhibition of leukemia growth: 23 days, BLI
[4] = test system: PSA expression in CRPC cell line C4-2; experiment: PSA expression in cell culture supernatant of C4-2 cells; assay type: cell-based; conditions: 96 h; C4-2 culture supernatant, 4-day treatment, FBS-supplemented regular media
Excerpt: CDK8/19 inhibition decreases the expression of certain androgen-receptor (AR) inducible genes including PSA, the most common marker of prostate cancer, and the growth of castration-refractory prostate cancers (CRPC).

CDK8/19 = experiment: NFκB reporter assay in parental 293 reporter cells; assay type: cell-based
Excerpt: We have used a cell-based assay to measure the inhibition of CDK8/19 activity by thienopyridine derivatives. This assay, based on the role of CDK8/19 in NFκB-driven transcription (Chen, 2017), measures the effects of CDK8/19 on the expression of firefly luciferase reporter from a NFκB-dependent promoter in 293 cells. Lentiviral vector pHAGE-NFKB-TA-LUC-UBC-dTomato-W (Addgene #49335) was introduced into 293 cells and a clonal cell line showing the strongest induction of luciferase expression upon TNFα treatment was established and used as the reporter cell line. As a control for CDK8/19 dependence of NFκB inhibition, we have also introduced the same reporter construct into 293 cells with CRISPR/CAS9 knockout of both CDK8 and CDK19.
FIG. 2C and Table 1 compares the IC50 values for different thienopyridines measured in the NFκB reporter assay in parental 293-derived reporter cell line to the cell-based activity values measured for the same compounds by Saito (2013) based on their effect on alkaline phosphatase (ALPase), an indicator of differentiation to osteoblasts in the mouse bone marrow stromal cell line ST2. The latter effects are expressed as EC200, a concentration that enhances ALPase activity to 200% of control.

[5] = Oral PK of a mixture of 15w and 15u, 30 mg/kg, female CD1 mice; conditions: oral 30 mg/kg each
CSNK1E = CSNK1E (Homo sapiens, UniProt P49674); experiment: Kd Elect binding assay (DiscoverX)
[6] = MTD, oral gavage b.i.d. 14 days, CD-1 mice; assay type: in vivo, mouse; conditions: for detrimental effects: 14 days
Description: The highest dose (120 mg/kg b.i.d.) caused about 10% body weight loss in female mice after 7-10 days of treatment but no further deterioration was observed through the rest of the treatment period (FIG. 16A).

[7] = Solubility of 15u in aqueous solution and vehicles
[8] = Oral PK, male Cynomolgus monkeys 25 mg/kg; conditions: Liquid formulation 2, oral 25 mg/kg

Chain of CSNK1E (P49674 whole entry): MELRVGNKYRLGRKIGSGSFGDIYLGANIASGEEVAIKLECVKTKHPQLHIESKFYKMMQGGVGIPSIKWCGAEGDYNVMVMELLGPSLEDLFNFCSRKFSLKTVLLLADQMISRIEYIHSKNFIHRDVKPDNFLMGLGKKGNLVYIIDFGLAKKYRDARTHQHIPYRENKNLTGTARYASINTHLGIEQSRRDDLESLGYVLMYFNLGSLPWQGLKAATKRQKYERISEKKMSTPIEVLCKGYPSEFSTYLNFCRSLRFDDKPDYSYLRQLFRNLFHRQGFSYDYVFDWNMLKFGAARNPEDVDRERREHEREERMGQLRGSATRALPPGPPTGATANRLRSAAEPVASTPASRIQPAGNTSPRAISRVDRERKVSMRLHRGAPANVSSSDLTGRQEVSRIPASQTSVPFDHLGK

## CN(C)C(=O)c1ccc(N2CCCN(c3ccnc4sc(C(N)=O)c(N)c34)CC2)cc1 [Compound 15u, 3-amino-4-(4-(4-(dimethylcarbamoyl)phenyl)-1,4-diazepan-1-yl)thieno[2,3-b]pyridine-2-carboxamide]
MDA-MB-468 xenografts
  MDA-MB-468 tumor volume: significant reduction in tumor volume
  MDA-MB-468 tumor weights at the end of the study: significantly lower
  mouse body weights: no detrimental effects
MYC-CAP-CR cells
  MYC-CaP-CR colony formation: decreased MYC-CaP-CR colony formation
[1]; LF-V#2, oral 30 mg/kg
  Elimination rate k: 0.22 h⁻¹
[1]; Sus-V#1, oral 30 mg/kg
  Elimination rate k: 0.37 h⁻¹
[1]; Sus-V#2, oral 30 mg/kg
  Elimination rate k: 0.38 h⁻¹
[1]; oral 30 mg/kg, male CD-1 mice
  increase of AUC, Liquid formulation 2 vs both suspension vehicles: 2-3 fold
  increase of t1/2, Liquid formulation 2 vs both suspension vehicles: ~1.7 fold
[2]; Capryol 90
  Maximum Solubility: 2.9 mg/g
[2]; Crodamol GMCC SS
  Maximum Solubility: 5.5 mg/g
[2]; Gelucire 44/14
  Maximum Solubility: 3.4 mg/g
[2]; Kolliphor EL
  Maximum Solubility: 1.3 mg/g
[2]; Labrafac PG
  Maximum Solubility: 0.0 mg/g
[2]; Labrafil M2125CS
  Maximum Solubility: 0.4 mg/g
[2]; Labrasol
  Maximum Solubility: 5.4 mg/g
[2]; Lecithin
  Maximum Solubility: 1.9 mg/g
[2]; Maisine CC
  Maximum Solubility: 2.4 mg/g
[2]; Miglyol 812N
  Maximum Solubility: 0.0 mg/g
[2]; Oleic Acid
  Maximum Solubility: 0.8 mg/g
[2]; Olive Oil
  Maximum Solubility: 0.0 mg/g
[2]; PEG 300
  Maximum Solubility: 19.8 mg/g
[2]; PEG 400
  Maximum Solubility: 11.8 mg/g
[2]; PEG 600
  Maximum Solubility: 18.3 mg/g
[2]; Peceol
  Maximum Solubility: 2.5 mg/g
[2]; Sesame Oil
  Maximum Solubility: 0.0 mg/g
[2]; Span 20
  Maximum Solubility: 8.0 mg/g
[2]; Span 80
  Maximum Solubility: 1.4 mg/g
[2]; Transcutol HP
  Maximum Solubility: 3.4 mg/g
[2]; Tween 80
  Maximum Solubility: 1.9 mg/g
[2]; Vitamin E TPGS
  Maximum Solubility: 14.6 mg/g
[2]; solid collected from Capryol 90
  XRPD Pattern (API = A): A
[2]; solid collected from Crodamol GMCC SS
  XRPD Pattern (API = A): A
[2]; solid collected from Kolliphor EL
  XRPD Pattern (API = A): A
[2]; solid collected from Labrafac PG
  XRPD Pattern (API = A): A
[2]; solid collected from Labrafil M2125CS
  XRPD Pattern (API = A): A
[2]; solid collected from Labrasol
  XRPD Pattern (API = A): A
[2]; solid collected from Lecithin
  XRPD Pattern (API = A): A
[2]; solid collected from Maisine CC
  XRPD Pattern (API = A): A
[2]; solid collected from Miglyol 812N
  XRPD Pattern (API = A): A
[2]; solid collected from Oleic Acid
  XRPD Pattern (API = A): A
[2]; solid collected from Olive Oil
  XRPD Pattern (API = A): A
[2]; solid collected from PEG 300
  XRPD Pattern (API = A): A
[2]; solid collected from PEG 400
  XRPD Pattern (API = A): A
[2]; solid collected from PEG 600
  XRPD Pattern (API = A): A
[2]; solid collected from Peceol
  XRPD Pattern (API = A): A
[2]; solid collected from Sesame Oil
  XRPD Pattern (API = A): A
[2]; solid collected from Span 20
  XRPD Pattern (API = A): A
[2]; solid collected from Span 80
  XRPD Pattern (API = A): A
[2]; solid collected from Tween 80
  XRPD Pattern (API = A): A
[3]; 30 mg/kg twice daily by gavage
  inhibition of leukemia growth: 94%
[3]; medicated chow 1 g/kg
  inhibition of leukemia growth: 99.7%
[3]; oral gavage
  survival post treatment: superior survival rates
[4]
  IC50: 28 nM
CDK8/19; NFκB Activity Assay as described in Example 1, read-out: Inhibition Potency HEK293-NFkB-Luc Assay
  IC50: 10.3 nM
CDK8/19; parental 293-derived reporter cell line, read-out: NFκB activity Assay IC50
  IC50: 10 nM
[5]
  average serum concentration at the latest timepoint (8 hrs) as % of Cmax: 64.4 % of Cmax
CSNK1E
  Kd: 280 nM
[6]; female CD-1 mice, 120 mg/kg b.i.d., after 7-10 days of treatment
  body weight loss: about 10%
[6]; female CD-1 mice, doses up to 60 mg/kg b.i.d.
  detrimental effects: No detrimental effects were observed
[6]; male CD-1 mice, 60 and 120 mg/kg b.i.d.
  detrimental effects: No detrimental effects were observed
[7]; 5% DMSO, 20% HPBCD
  amount of the compound in the liquid phase: 0.2 mg/mL
[7]; Liquid formulation 1, pH 2.1, aqueous with cosolvent or surfactant or cyclodextrin
  solubility: ~5000 µg/mL (≈ 11.4 mM)
[7]; Liquid formulation 2, organic solvent or mixture
  solubility: ≤ 20000 µg/mL
[7]; aqueous solution, pH 7, water
  solubility: < 10 µg/mL
[8]
  adverse effects: no adverse effects were observed
